This is an account of results in patent publication US11957690B2, “Chromogenic beta-lactamase substrate” (BROWN UNIVERSITY, priority 2018, dated 2024).

Series [1] concerns penicillinase. As to the kind of experiment: Color change / absorbance spectrum in penicillinase. It is filed as biochemical. The settings on record: for Absorbance/time response in penicillinase, comparison with CENTA: FIG. 5. An excerpt: FIG. 3 is a set of absorbance spectrum charts showing the color change of Compound 1 (ANT) in the presence of a β-lactamase came with a definite shift in Compound 1 (ANT) absorbance spectrum upon adding penicillinase, thus cleaving the β-lactam ring and expelling the 3′-leaving group. […] As the β-lactam ring is cleaved by the enzymes, the peak at 260 nm disappears.
FIG. 5 is a comparison between Compound 1 (ANT) response and CENTA response.
FIG. 6 is a chart showing deprotected ANT-maleimide in penicillinase, measuring the absorbance of conjugate at different time points.

The test system of series [2] is gram-negative species. The following applies: cited from earlier work.
Series [3] relates to Staphylococcus aureus. The settings on record: cited from earlier work.
Series [4] concerns E. coli 25922. Briefly: Microdilution assay, antibacterial efficacy (MIC). The settings on record: Escherichia coli, Gram −, βL producing Yes, 18 h, 37° C. It is filed as cell-based. The method, then:
(§1) The antibacterial effect of Substrate Compound 2 was tested against Staphylococcus aureus, Escherichia coli, MRSA, and Pseudomonas aeruginosa in a microdilution assay. Substrate Compound 2 was dissolved in dimethyl sulfoxide at a concentration of 2.56 mg/mL and diluted to a concentration of 256 μg/mL in sterile phosphate-buffered saline. Substrate Compound 2 solutions and a control of 10% dimethyl sulfoxide in cation-adjusted Mueller Hinton broth (CMHB) or tryptic soy broth (TSB) were serially diluted 1:2 with cation-adjusted Mueller Hinton broth or tryptic soy broth in a 96-well plate. Cation-adjusted Muller-Hinton broth (CMHB) is commercially available from MilliporeSigma (Billerica, MA, USA).
(§2) Bacteria in its log phase was added to the wells at a final concentration of 10^5 CFU/mL. Positive controls of bacteria cultured in only media and negative controls of cation-adjusted Mueller Hinton broth or tryptic soy broth without bacteria were included. After eighteen hours of shaking at 100 rpm at 37° C., the optical density at 600 nm (OD600) was measured using a BioTekQ® normalized bacteria density was calculated using equation 1: […]

Series [5] has as its system P. aeruginosa PA01. As to the kind of experiment: Microdilution assay, antibacterial efficacy (MIC). The following applies: Pseudomonas aeruginosa, Gram −, βL producing Yes, 18 h, 37° C. In kind it is cell-based. The method, then: as §1, §2
The subject of series [6] is S. aureus 25923. As to the kind of experiment: Microdilution assay, antibacterial efficacy (MIC). The settings on record: Staphylococcus aureus, Gram +, βL producing No, 18 h, 37° C. It is filed as cell-based. The method, then: as §1, §2
The subject of series [7] is S. aureus 29213. As to the kind of experiment: Microdilution assay, antibacterial efficacy (MIC). In kind it is cell-based. The following applies: Staphylococcus aureus, Gram +, βL producing Yes, 18 h, 37° C. The method, then: as §1, §2
Series [8] concerns MRSA MW2. As to the kind of experiment: Microdilution assay, antibacterial efficacy (MIC). It is filed as cell-based, methicillin-resistant Staphylococcus aureus. The settings on record: Staphylococcus aureus, Gram +, βL producing Yes, 18 h, 37° C. The method, then: as §1, §2
The test system of series [9] is B. cereus. Briefly: Microdilution assay, antibacterial efficacy (MIC). In kind it is cell-based. The following applies: Bacillus cereus, Gram +, βL producing Yes, 18 h, 37° C.
Series [10] deals with E. cloacae. As to the kind of experiment: Microdilution assay, antibacterial efficacy (MIC). In kind it is cell-based. The following applies: Enterobacter cloacae, Gram −, βL producing Yes, 18 h, 37° C.
In series [11] the target is T1, β-lactamase from Bacillus cereus (Bacillus cereus, UniProt P04190).
T1 construct: purchased MilliporeSigma
T1 sequence (P04190 31-257): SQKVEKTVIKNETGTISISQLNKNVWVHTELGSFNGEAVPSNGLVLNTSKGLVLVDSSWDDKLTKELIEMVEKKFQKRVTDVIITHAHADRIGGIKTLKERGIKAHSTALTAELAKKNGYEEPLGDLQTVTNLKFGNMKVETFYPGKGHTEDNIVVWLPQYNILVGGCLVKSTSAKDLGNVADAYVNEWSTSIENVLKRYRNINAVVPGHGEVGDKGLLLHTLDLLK
In kind it is biochemical. The method, then:
(§3) Substrate Compound 2 was tested with a class B β-lactamase from Bacillus cereus (Bebrone et al., Antimicrobial Agents Chemother., 45, 1868-1871 (2001)). Substrate Compound 2 was tested with class C β-lactamases (from Pseudomonas aeruginosa (Mirsalehian et al., Iranian J. Microbiol., 6, 306-310 (2014)) and β-lactamase from Enterobacter cloacae (Seeberg, Tolxdorff-Neutzling & Wiedemann, Antimicrobial Agents Chemother., 23, 918-925 (1983)). These bacteria are present in many infections, including wounds. See, Bodey et al., Clinical Infectious Diseases, 5, 279-313 (2011) and Davin-Regli & Pages, Frontiers in Microbiology, 6, 392 (2015).
The inventors measured the concentration-dependent absorbance shift in a spectral scan of Substrate Compound 2 with different concentrations (U/mL) of β-lactamase from Bacillus cereus or in phosphate-buffered saline after 45 minutes at 37° C. The absorbance signal at 410 nm increased to a maximum as a function of β-lactamase concentration. The inventors also performed these measurements for β-lactamase from Pseudomonas aeruginosa and Enterobacter cloacae.
96-well plate. […] The samples of Substrate Compound 2 in β-lactamases from Bacillus cereus (200 U/mL in M sodium phosphate buffer, pH 7) were incubated for thirty minutes at 37° C. before the absorbance of the solution from 230 to 650 nm was measured using a BioTekQ® […]

In series [12] the target is T2, β-lactamase from Enterobacter cloacae (Enterobacter cloacae, UniProt P05364).
T2 construct: purchased MilliporeSigma
T2 sequence (P05364 21-381): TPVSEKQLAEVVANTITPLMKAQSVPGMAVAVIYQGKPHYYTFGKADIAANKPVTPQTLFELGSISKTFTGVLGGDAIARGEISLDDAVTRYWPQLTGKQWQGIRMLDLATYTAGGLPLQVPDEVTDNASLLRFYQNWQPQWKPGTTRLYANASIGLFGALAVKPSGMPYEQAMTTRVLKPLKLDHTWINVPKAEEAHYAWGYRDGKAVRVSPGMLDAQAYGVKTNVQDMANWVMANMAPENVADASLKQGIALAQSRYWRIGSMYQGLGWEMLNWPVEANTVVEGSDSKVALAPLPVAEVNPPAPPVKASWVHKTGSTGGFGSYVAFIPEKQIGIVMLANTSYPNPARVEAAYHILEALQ
Briefly: Colorimetric / UV-vis response to β-lactamase. It is filed as biochemical. The following applies: 10% DMSO, 37° C. The method, then:
as §3
(§4) 96-well plate. Substrate Compound 2 was dissolved in DMSO at a concentration of two mg/ml. Fifteen μL of Substrate Compound 2 was added to a well of a 96-well plate. […] The samples of Substrate Compound 2 in β-lactamases from Bacillus cereus (200 U/mL in M sodium phosphate buffer, pH 7) were incubated for thirty minutes at 37° C. before the absorbance of the solution from 230 to 650 nm was measured using a BioTekQ®
(§5) Cytation3 plate reader. For the samples in Pseudomonas aeruginosa (50 U/mL in 0.15 M sodium phosphate buffer, pH 7), the absorbance was measured after ninety minutes at 37° C. […] For the samples in Enterobacter cloacae (1 U/ml in M sodium phosphate buffer, pH 7), the absorbance was measured after three hours at 37° C. […]

The target in series [13] is T3, β-lactamase from Pseudomonas aeruginosa (Pseudomonas aeruginosa, UniProt P24735).
T3 construct: purchased MilliporeSigma
T3 sequence (P24735 27-397): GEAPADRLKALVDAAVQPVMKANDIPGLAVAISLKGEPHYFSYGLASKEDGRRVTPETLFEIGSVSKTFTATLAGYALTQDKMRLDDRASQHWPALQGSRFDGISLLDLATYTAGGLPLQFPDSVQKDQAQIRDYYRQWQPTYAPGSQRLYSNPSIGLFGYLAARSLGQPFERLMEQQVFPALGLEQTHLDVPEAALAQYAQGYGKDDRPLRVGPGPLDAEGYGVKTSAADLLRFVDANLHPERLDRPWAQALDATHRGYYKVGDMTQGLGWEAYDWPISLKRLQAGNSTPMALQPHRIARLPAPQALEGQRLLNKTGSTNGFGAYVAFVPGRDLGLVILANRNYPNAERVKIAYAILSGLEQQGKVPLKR
Briefly: Colorimetric / UV-vis response to β-lactamase. The following applies: 10% DMSO, 37° C. It is filed as biochemical. The method, then: as §3, §4, §5

Series [14] is described as follows: Aqueous solubility. It is filed as physicochemical.
The subject of series [15] is β-lactamases from Bacillus cereus, Pseudomonas aeruginosa, and Enterobacter cloacae. Briefly: Michaelis-Menten kinetics of hydrolysis. In kind it is biochemical. The settings on record: compared with commercially available chromogenic β-lactamase substrates.
Method: To further characterize substrate-enzyme relationships between Substrate Compound 2 and β-lactamases, kinetic parameters were measured using Michaelis-Menten kinetics.
Parameters were determined for Substrate Compound 2 and commercially available chromogenic β-lactamase substrates CENTA and nitrocefin as comparisons, using different β-lactamases. All kinetic experiments were performed for concentrations of Substrate Compound 2 ranging from 0.025-0.2 mg/mL with 10% DMSO, and concentrations of 4 ranging from 1.5-12.1 mg/mL in 0.15 M sodium phosphate buffer pH 7 at 37° C. Hydrolysis of Substrate Compound 2 was measured by continuously recording the change in absorbance at 410 nm on a BioTekQ® Cytation3 plate reader. The kM, kcat, and VMax values were calculated through the initial velocities and the direct fitting of the Michaelis-Menten curve to the data through GraphPad Prism software.

Molecules are shown by their SMILES. ≈ marks a conversion by molar mass, not a printed value.

Turning to `O=C(Cc1cccs1)N[C@@H]1C(=O)N2C(C(=O)O)=C(CSc3ccc([N+](=O)[O-])c(C(=O)O)c3)CS[C@H]12` [CENTA], the “Absorbance/time response in penicillinase, comparison with CENTA” value in series [1] is recorded as “reaches its maximum absorbance at a faster rate than Compound 1 (ANT)”. In [2], the “Antibacterial activity against gram-negative species” value is on record as “not antibacterial”. For the same compound, the “Antibacterial activity against Staphylococcus aureus” value in [3] was “some activity”.

On to `COc1ccc(COC(=O)C2=C(CSc3ccc([N+](=O)[O-])cc3)CSC3C(N)C(=O)N23)cc1` (stereo not drawn) [Compound 1], for which, in [1] (1.5 hours at 37° C.), the “Color change in penicillinase compared to PBS” value is listed as “showed a significant color change” and the “Shift of maximum absorbance peak on cleavage by penicillinase” value is “maximum absorbance peak shifts from 345 nm to 410 nm”. Further, in [1] (Example 1, protected conjugate of ACLE and NBT), the “Color change of the conjugate incubated in penicillinase or phosphate-buffered saline” value is on record as “does not undergo a color change”. Also, the “Absorbance/time response in penicillinase, comparison with CENTA” value in series [1] is given as “behave similarly”.

For `CN(C)c1ccc(N=Nc2cccc[n+]2CC2=C(C(=O)[O-])N3C(=O)[C@@H](NC(=O)Cc4cccs4)[C@H]3SC2)cc1` [PADAC], the “Antibacterial activity against gram-negative species” value in series [2] is reported as “not antibacterial”. For the same compound, in series [3], the “Antibacterial activity against Staphylococcus aureus” value is recorded as “some activity”.

Consider `NC1C(=O)N2C(C(=O)O)=C(CSc3ccc([N+](=O)[O-])cc3)CSC12` (stereo not drawn) [Substrate Compound 2], for which the MIC in series [4] was more than 128 µg/mL; in [5], more than 128 µg/mL; in [6], 8 µg/mL (≈ 21.8 µM); in series [7], 8 µg/mL (≈ 21.8 µM); in series [8], more than 128 µg/mL; in [9] it was more than 128 µg/mL. The MIC in series [10] is more than 128 µg/mL. Further, the “Lower detection limit of β-lactamase” value in [11] (absorbance at 410 nm, 45 minutes at 37° C., β-lactamase 0.78-400 U/mL) was “approximately 3.12 U/mL”. Also, the “Color change when mixed with β-lactamase” value in series [11] (β-lactamase from Bacillus cereus, 10% DMSO, 37° C.) was “changed color from clear to yellow”; in series [12], “changed color from clear to yellow”; in series [13], “changed color from clear to yellow”. In addition, the Aqueous solubility entry in [14] is listed as “not soluble in aqueous conditions”. Also, the “Kinetic rate of hydrolysis by β-lactamases” value in series [15] is listed as “kinetic rate similar to commercially available chromogenic β-lactamase substrates”.

In the case of `O=C(Cc1cccs1)N[C@@H]1C(=O)N2C(C(=O)O)=C(/C=C/c3ccc([N+](=O)[O-])cc3[N+](=O)[O-])CS[C@H]12` [nitrocefin], the “Antibacterial activity against gram-negative species” value in [2] is “not antibacterial”. Further, in series [3], the “Antibacterial activity against Staphylococcus aureus” value is recorded as “some activity”.
